In patent US12685726B2, “Sulfoximines as inhibitors of NaV1.8” (Gruenenthal GmbH, priority 2022, dated 2026) one finds IC50 data, which are given here for 9 compounds.

For this assay, the target named is T1, human NaV 1.8 (Homo sapiens, UniProt Q9Y5Y9).
T1 construct: expressed in transfected cells; host or cells: HEK (recombinant cell line)
Kind of assay: Automated whole-cell patch clamp (Qube384) voltage-clamp recordings of sodium currents in HEK-NaV1.8 cell line. To be noted: read-out: Potency category (human NaV 1.8 IC50). Format: cell-based. An outline of the steps:
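HEK cells expressing NaV1.8 with b3, whole-cell automated voltage clamp at room temperature or 19° C.; CsF-based internal, pH 7.4 external. State-dependent (−120 mV, V1/2 4 s, −10 mV test pulses) and 10/20 Hz 40-pulse protocols; ~12 min compound, vehicle-corrected, IC50 by 4-parameter logistic fit.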

T1 sequence (Q9Y5Y9 whole entry): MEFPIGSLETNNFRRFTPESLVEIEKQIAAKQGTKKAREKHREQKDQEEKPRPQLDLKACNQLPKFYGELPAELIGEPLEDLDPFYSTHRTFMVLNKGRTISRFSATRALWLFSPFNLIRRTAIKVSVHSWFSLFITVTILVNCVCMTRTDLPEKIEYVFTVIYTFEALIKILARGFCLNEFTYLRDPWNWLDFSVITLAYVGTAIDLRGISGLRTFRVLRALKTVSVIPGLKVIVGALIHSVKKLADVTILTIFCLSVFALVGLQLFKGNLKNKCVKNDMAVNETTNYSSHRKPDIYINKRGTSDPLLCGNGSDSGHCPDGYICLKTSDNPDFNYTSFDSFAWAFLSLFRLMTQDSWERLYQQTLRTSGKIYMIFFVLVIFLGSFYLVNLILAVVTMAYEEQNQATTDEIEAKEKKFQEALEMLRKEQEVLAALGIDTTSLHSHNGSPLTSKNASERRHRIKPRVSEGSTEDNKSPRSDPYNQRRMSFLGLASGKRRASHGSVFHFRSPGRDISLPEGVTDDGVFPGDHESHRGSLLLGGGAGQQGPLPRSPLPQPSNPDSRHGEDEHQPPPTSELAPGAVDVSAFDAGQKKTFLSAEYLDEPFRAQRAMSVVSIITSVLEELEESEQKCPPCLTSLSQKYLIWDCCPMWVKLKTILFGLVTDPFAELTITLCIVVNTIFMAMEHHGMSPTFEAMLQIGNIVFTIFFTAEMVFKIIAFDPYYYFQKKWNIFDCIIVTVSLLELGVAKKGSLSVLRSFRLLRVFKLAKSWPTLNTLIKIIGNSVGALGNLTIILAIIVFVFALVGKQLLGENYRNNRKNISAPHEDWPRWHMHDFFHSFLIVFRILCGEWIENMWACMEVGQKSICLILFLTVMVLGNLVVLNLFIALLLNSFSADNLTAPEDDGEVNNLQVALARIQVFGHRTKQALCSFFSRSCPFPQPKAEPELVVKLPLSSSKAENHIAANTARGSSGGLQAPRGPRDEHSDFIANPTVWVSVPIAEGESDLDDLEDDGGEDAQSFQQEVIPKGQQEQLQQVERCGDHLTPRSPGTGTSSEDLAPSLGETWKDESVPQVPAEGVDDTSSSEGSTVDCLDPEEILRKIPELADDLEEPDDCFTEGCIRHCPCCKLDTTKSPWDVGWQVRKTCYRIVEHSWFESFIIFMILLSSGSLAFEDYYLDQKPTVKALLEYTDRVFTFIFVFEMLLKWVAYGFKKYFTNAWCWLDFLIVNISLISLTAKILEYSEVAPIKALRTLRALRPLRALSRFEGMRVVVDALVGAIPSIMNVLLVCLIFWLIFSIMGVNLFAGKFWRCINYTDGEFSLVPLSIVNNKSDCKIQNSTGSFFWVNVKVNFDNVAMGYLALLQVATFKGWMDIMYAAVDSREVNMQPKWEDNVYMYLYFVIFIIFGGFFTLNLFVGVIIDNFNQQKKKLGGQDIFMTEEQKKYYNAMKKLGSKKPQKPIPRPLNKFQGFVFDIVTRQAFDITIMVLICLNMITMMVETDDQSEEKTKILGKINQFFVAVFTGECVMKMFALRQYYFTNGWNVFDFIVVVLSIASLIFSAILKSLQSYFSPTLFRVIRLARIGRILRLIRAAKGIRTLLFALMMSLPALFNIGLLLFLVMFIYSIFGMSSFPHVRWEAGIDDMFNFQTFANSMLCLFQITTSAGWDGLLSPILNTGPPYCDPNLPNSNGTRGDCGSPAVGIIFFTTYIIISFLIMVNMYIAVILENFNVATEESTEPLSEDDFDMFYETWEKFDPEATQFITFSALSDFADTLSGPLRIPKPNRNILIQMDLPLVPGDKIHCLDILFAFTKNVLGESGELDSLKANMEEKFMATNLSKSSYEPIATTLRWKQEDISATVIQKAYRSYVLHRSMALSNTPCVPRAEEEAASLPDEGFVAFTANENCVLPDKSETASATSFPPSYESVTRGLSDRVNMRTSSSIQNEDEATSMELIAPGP

As for `CC(F)(F)c1nn(CC2CC(F)(F)C2)c(C(=O)Nc2ccnc(S(C)(=N)=O)c2)c1C(F)(F)F` (stereo not drawn) [Example 3, 1-((3,3-Difluorocyclobutyl)methyl)-3-(1,1-difluoroethyl)-N-(2-(S-methylsulfonimidoyl)pyridin-4-yl)-4-(trifluoromethyl)-1H-pyrazole-5-carboxamide], the IC50 – broadly, the point on the concentration scale where inhibition reaches its midpoint – is no more than 100 nM.
For `Cc1c(C(C)(F)F)nn(CC2CCC(F)(F)C2)c1C(=O)Nc1ccnc(S(C)(=N)=O)c1` (stereo not drawn) [Example 4, 1-((3,3-Difluorocyclopentyl)methyl)-3-(1,1-difluoroethyl)-4-methyl-N-(2-(S-methylsulfonimidoyl)pyridin-4-yl)-1H-pyrazole-5-carboxamide] the value was no more than 100 nM; for `CS(=N)(=O)c1cc(NC(=O)c2c(C(F)(F)F)c(OC(F)F)nn2CC2CCC(F)(F)C2)ccn1` (stereo not drawn) [Example 33, 1-((3,3-Difluorocyclopentyl)methyl)-3-(difluoromethoxy)-N-(2-(S-methylsulfonimidoyl)pyridin-4-yl)-4-(trifluoromethyl)-1H-pyrazole-5-carboxamide], no more than 100 nM.
As for `COC12CC(c3nn(CC4(C)CC(F)(F)C4)c(C(=O)Nc4ccnc(S(C)(=N)=O)c4)c3C(F)(F)F)(C1)C2` (stereo not drawn) [Example 122, 1-((3,3-Difluoro-1-methylcyclobutyl)methyl)-3-(3-methoxybicyclo[1.1.1]pentan-1-yl)-N-(2-(S-methylsulfonimidoyl)pyridin-4-yl)-4-(trifluoromethyl)-1H-pyrazole-5-carboxamide], the figure is no more than 100 nM; as for `CC1(Cn2nc(C3(F)CC3)c(C(F)(F)F)c2C(=O)Nc2cccc(S(=N)(=O)C(F)(F)F)c2)CC(F)(F)C1` (stereo not drawn) [Example 131, 1-((3,3-Difluoro-1-methylcyclobutyl)methyl)-3-(1-fluorocyclopropyl)-4-(trifluoromethyl)-N-(3-(S-(trifluoromethyl)sulfonimidoyl)phenyl)-1H-pyrazole-5-carboxamide], no more than 100 nM; as for `CS(=N)(=O)c1cc(NC(=O)c2c(C(F)(F)F)c(C34CC(C3)C4)nn2CC2C[C@@H]2C(F)(F)F)ccn1` (stereo partly drawn) [Example 147], no more than 100 nM.
As to `CC1(Cn2nc(C3(F)CC3)c(C(F)(F)F)c2C(=O)Nc2cccc([S@@](C)(=O)=NC(=O)CO)c2)CC(F)(F)C1` [Example 151a], the IC50 was no more than 100 nM.
Turning to `CC1(Cn2nc(C3(F)CC3)c(C(F)(F)F)c2C(=O)Nc2cccc([S@](C)(=O)=NC(=O)CO)c2)CC(F)(F)C1` [Example 151b], the half-maximal inhibitory concentration (IC50) was no more than 100 nM.
In the case of `CC1(Cn2nc(C3CC3)c(C(F)(F)F)c2C(=O)Nc2ccnc(S(C)(=O)=NC[C@@H](O)CO)c2)CC(F)(F)C1` (stereo partly drawn) [Example 152, 3-Cyclopropyl-1-((3,3-difluoro-1-methylcyclobutyl)methyl)-N-(2-(N—((R)-2,3-dihydroxypropyl)-S-methylsulfonimidoyl)pyridin-4-yl)-4-(trifluoromethyl)-1H-pyrazole-5-carboxamide], the IC50 was no more than 100 nM.
